What was measured:
human NHE-3 = biological target: T1, human NHE-3 (Homo sapiens, UniProt P48764); assay: Cell-based assay of NHE-3 activity (human NHE3 inhibition assay); details: OK cells with human NHE-3 gene, BCECF pH dye, 0-30 μM test compound
T1 construct: expressed in transfected cells; host or cells: Opossum kidney (OK) cells (ATCC), transfected by electroporation
T1 sequence (P48764 26-834): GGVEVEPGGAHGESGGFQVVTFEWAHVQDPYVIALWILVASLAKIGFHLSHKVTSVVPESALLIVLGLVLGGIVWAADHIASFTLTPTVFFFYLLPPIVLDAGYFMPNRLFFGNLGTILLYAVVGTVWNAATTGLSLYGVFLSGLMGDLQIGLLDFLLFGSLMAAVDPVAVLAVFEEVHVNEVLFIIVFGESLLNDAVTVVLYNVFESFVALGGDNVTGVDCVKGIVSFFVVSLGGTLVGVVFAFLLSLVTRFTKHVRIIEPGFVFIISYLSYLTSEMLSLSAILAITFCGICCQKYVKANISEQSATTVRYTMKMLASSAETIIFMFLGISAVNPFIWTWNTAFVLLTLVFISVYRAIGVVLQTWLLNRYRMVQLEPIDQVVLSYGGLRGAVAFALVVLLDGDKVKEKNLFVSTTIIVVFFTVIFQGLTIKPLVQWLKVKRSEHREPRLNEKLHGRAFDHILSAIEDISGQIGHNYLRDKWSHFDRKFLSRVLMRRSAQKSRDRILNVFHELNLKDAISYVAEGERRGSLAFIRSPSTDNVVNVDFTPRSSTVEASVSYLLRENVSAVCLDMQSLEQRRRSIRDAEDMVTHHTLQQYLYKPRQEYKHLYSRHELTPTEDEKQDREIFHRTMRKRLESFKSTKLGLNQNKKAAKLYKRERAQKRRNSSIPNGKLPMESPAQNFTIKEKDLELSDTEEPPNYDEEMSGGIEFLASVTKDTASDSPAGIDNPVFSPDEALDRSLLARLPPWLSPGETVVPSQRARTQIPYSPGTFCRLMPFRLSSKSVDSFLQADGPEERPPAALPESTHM
How it was run: (§1)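 Opossum kidney cells electroporated with rat or human NHE-3, loaded with 5 μM BCECF-AM in NH4Cl-HEPES pH 7.4 for 30 min at RT, then acidified 10 min in Na+-free choline HEPES. Na+-dependent pH recovery rates from BCECF fluorescence, averaged over ≥2 replicates, gave pIC50.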

[1] = test system: absorption of sodium from the intestinal lumen; assay: Inhibition of intestinal sodium absorption (urinary sodium and fecal form); format: in vivo, Sprague-Dawley rats; details: rat; for response vs control in vivo at 3 mg/kg: 3 mg/kg oral gavage, urine 16 h post-dose, asterisks = significance vs vehicle (*P<0.05, **P<0.01, ***P<0.001), read-out: uNa (% of vehicle)
How it was run: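 Sprague-Dawley rats (8 weeks, n=6) dosed by oral gavage with compound or water vehicle (10 mL/kg) in late afternoon, then housed in metabolic cages. Over 16 h, urinary sodium measured by ion chromatography and expressed as % of vehicle mean; fecal form scored 1–5, averaged from two observations.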

Rat NHE-3 [2] = biological target: T2, Rat NHE-3 (Rattus norvegicus, UniProt P26433); assay: Cell-based assay of NHE-3 activity (rat NHE-3 prompt inhibition); details: OK cells with rat NHE-3 gene, compound present during pH recovery
T2 construct: expressed in transfected cells; host or cells: Opossum kidney (OK) cells (ATCC), transfected by electroporation
How it was run: as §1

Rat NHE-3 [3] = biological target: T2, Rat NHE-3; assay: Cell-based assay of NHE-3 activity (persistent inhibition, after washout); details: OK cells with rat NHE-3 gene, 60 min incubation, recovery initiated 40 min after compound washout
How it was run: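 OK cells transiently expressing rat NHE-3 were exposed to 0-30 μM compound in NaCl-HEPES pH 7.4 for 60 min, then washed free of drug before NH4Cl/BCECF-AM loading and acid-loading in Na+-free choline buffer. Na+-dependent pH recovery rates (mean of ≥2 replicates) gave pIC50.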

T2 sequence (P26433 29-831): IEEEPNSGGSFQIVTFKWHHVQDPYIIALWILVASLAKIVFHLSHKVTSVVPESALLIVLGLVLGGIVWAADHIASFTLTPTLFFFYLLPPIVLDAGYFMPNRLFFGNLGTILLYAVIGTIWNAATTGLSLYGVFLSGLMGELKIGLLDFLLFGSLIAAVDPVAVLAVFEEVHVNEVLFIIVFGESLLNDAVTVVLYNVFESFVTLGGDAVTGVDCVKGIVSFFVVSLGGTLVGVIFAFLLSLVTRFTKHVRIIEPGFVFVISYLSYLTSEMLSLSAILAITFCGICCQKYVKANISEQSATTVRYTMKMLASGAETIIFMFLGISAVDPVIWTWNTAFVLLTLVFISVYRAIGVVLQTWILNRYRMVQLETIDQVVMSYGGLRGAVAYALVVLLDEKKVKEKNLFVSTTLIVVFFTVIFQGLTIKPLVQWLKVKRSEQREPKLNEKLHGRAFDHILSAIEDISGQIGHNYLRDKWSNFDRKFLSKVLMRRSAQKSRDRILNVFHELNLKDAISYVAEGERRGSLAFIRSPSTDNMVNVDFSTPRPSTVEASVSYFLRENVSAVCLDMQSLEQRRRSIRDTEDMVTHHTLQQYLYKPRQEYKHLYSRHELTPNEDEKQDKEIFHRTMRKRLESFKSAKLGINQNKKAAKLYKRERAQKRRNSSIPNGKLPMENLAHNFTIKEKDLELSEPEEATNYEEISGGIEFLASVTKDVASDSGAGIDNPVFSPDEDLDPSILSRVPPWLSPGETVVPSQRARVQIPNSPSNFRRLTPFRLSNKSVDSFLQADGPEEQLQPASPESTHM

Human NHE3 pIC50 (human NHE-3) | Rat NHE3 pIC50 (prompt) (Rat NHE-3 [2]) | Rat NHE3 pIC50 (persistent) (Rat NHE-3 [3]) | IC50 (human NHE-3; read-out: Human NHE3 pIC50 (converted)) [µM] | IC50 (Rat NHE-3 [2]; read-out: Rat NHE3 pIC50 (prompt) (converted)) [µM] | IC50 (Rat NHE-3 [3]; read-out: Rat NHE3 pIC50 (persistent) (converted)) [µM] | SMILES | response vs control in vivo at 3 mg/kg [1] [%] | FFS ([1]; fecal form score, scale 1 (normal pellet) to 5 (liquid fecal streams), group average, 3 mg/kg oral, 16 h post-dose, vehicle = 1)
B (B NHE3 pIC50 5-7) | B (B NHE3 pIC50 5-7) | C (C NHE3 pIC50 > 7) | – | – | – | CN1Cc2c(Cl)cc(Cl)cc2[C@H](c2cccc(S(=O)(=O)NCCOCCOCCNC(=O)NCCN(CCNC(=O)NCCOCCOCCNS(=O)(=O)c3cccc([C@@H]4CN(C)Cc5c(Cl)cc(Cl)cc54)c3)CCNC(=O)NCCOCCOCCNS(=O)(=O)c3cccc([C@@H]4CN(C)Cc5c(Cl)cc(Cl)cc54)c3)c2)C1 [Example 53] | 35 to 75 | –
C (C NHE3 pIC50 > 7) | B (B NHE3 pIC50 5-7) | C (C NHE3 pIC50 > 7) | – | – | – | CN1Cc2c(Cl)cc(Cl)cc2[C@H](c2cccc(S(=O)(=O)N(C)CCOCCOCCNC(=O)NCCCN(CCCNC(=O)NCCOCCOCCN(C)S(=O)(=O)c3cccc([C@@H]4CN(C)Cc5c(Cl)cc(Cl)cc54)c3)CCCNC(=O)NCCOCCOCCN(C)S(=O)(=O)c3cccc([C@@H]4CN(C)Cc5c(Cl)cc(Cl)cc54)c3)c2)C1 [Example 54] | > 75 | –
C (C NHE3 pIC50 > 7) | C (C NHE3 pIC50 > 7) | C (C NHE3 pIC50 > 7) | – | – | – | CN1Cc2c(Cl)cc(Cl)cc2[C@H](c2cccc(S(=O)(=O)N(CCO)CCOCCOCCNC(=O)NCCCN(CCCNC(=O)NCCOCCOCCN(CCO)S(=O)(=O)c3cccc([C@@H]4CN(C)Cc5c(Cl)cc(Cl)cc54)c3)CCCNC(=O)NCCOCCOCCN(CCO)S(=O)(=O)c3cccc([C@@H]4CN(C)Cc5c(Cl)cc(Cl)cc54)c3)c2)C1 [Example 56] | 35 to 75 | –
C (C NHE3 pIC50 > 7) | B (B NHE3 pIC50 5-7) | C (C NHE3 pIC50 > 7) | – | – | – | CCN(CCOCCOCCNC(=O)NCCCN(CCCNC(=O)NCCOCCOCCN(CC)S(=O)(=O)c1cccc([C@@H]2CN(C)Cc3c(Cl)cc(Cl)cc32)c1)CCCNC(=O)NCCOCCOCCN(CC)S(=O)(=O)c1cccc([C@@H]2CN(C)Cc3c(Cl)cc(Cl)cc32)c1)S(=O)(=O)c1cccc([C@@H]2CN(C)Cc3c(Cl)cc(Cl)cc32)c1 [Example 57] | 35 to 75 | –
C (C NHE3 pIC50 > 7) | C (C NHE3 pIC50 > 7) | C (C NHE3 pIC50 > 7) | – | – | – | CN1Cc2c(Cl)cc(Cl)cc2[C@H](c2cccc(S(=O)(=O)NCCOCCOCCNC(=O)NCCC[N+](C)(CCCNC(=O)NCCOCCOCCNS(=O)(=O)c3cccc([C@@H]4CN(C)Cc5c(Cl)cc(Cl)cc54)c3)CCCNC(=O)NCCOCCOCCNS(=O)(=O)c3cccc([C@@H]4CN(C)Cc5c(Cl)cc(Cl)cc54)c3)c2)C1 [Example 58] | 35 to 75 | –
C (C NHE3 pIC50 > 7) | C (C NHE3 pIC50 > 7) | C (C NHE3 pIC50 > 7) | – | – | – | CN1Cc2c(Cl)cc(Cl)cc2[C@H](c2cccc(S(=O)(=O)NCCOCCOCCNC(=O)NCCCC(CCCNC(=O)NCCOCCOCCNS(=O)(=O)c3cccc([C@@H]4CN(C)Cc5c(Cl)cc(Cl)cc54)c3)(CCCNC(=O)NCCOCCOCCNS(=O)(=O)c3cccc([C@@H]4CN(C)Cc5c(Cl)cc(Cl)cc54)c3)NC(=O)CCC(=O)O)c2)C1 [Example 63] | 35 to 75 | –
C (C NHE3 pIC50 > 7) | C (C NHE3 pIC50 > 7) | C (C NHE3 pIC50 > 7) | – | – | – | CN1Cc2c(Cl)cc(Cl)cc2[C@H](c2cccc(S(=O)(=O)NCCOCCOCCNC(=O)NCCCC(CCCNC(=O)NCCOCCOCCNS(=O)(=O)c3cccc([C@@H]4CN(C)Cc5c(Cl)cc(Cl)cc54)c3)(CCCNC(=O)NCCOCCOCCNS(=O)(=O)c3cccc([C@@H]4CN(C)Cc5c(Cl)cc(Cl)cc54)c3)NC(=O)COCC(=O)O)c2)C1 [Example 64] | 35 to 75 | –
C (C NHE3 pIC50 > 7) | C (C NHE3 pIC50 > 7) | C (C NHE3 pIC50 > 7) | – | – | – | CN1Cc2c(Cl)cc(Cl)cc2[C@H](c2cccc(S(=O)(=O)NCCOCCOCCNC(=O)NCCC(CCNC(=O)NCCOCCOCCNS(=O)(=O)c3cccc([C@@H]4CN(C)Cc5c(Cl)cc(Cl)cc54)c3)(CCNC(=O)NCCOCCOCCNS(=O)(=O)c3cccc([C@@H]4CN(C)Cc5c(Cl)cc(Cl)cc54)c3)NC(=O)COCC(=O)O)c2)C1 [Example 66] | < 35 | –
C (C NHE3 pIC50 > 7) | C (C NHE3 pIC50 > 7) | C (C NHE3 pIC50 > 7) | – | – | – | CN1Cc2c(Cl)cc(Cl)cc2[C@H](c2cccc(S(=O)(=O)NCCOCCOCCN(C)C(=O)CCC(N)(CCC(=O)N(C)CCOCCOCCNS(=O)(=O)c3cccc([C@@H]4CN(C)Cc5c(Cl)cc(Cl)cc54)c3)CCC(=O)N(C)CCOCCOCCNS(=O)(=O)c3cccc([C@@H]4CN(C)Cc5c(Cl)cc(Cl)cc54)c3)c2)C1 [Example 67] | > 75 | –
C (C NHE3 pIC50 > 7) | C (C NHE3 pIC50 > 7) | C (C NHE3 pIC50 > 7) | – | – | – | CN(C)CC(=O)NC(CCC(=O)N(C)CCOCCOCCNS(=O)(=O)c1cccc([C@@H]2CN(C)Cc3c(Cl)cc(Cl)cc32)c1)(CCC(=O)N(C)CCOCCOCCNS(=O)(=O)c1cccc([C@@H]2CN(C)Cc3c(Cl)cc(Cl)cc32)c1)CCC(=O)N(C)CCOCCOCCNS(=O)(=O)c1cccc([C@@H]2CN(C)Cc3c(Cl)cc(Cl)cc32)c1 [Example 68] | 35 to 75 | –
C (C NHE3 pIC50 > 7) | C (C NHE3 pIC50 > 7) | C (C NHE3 pIC50 > 7) | – | – | – | CN1Cc2c(Cl)cc(Cl)cc2[C@H](c2cccc(S(=O)(=O)NCCOCCOCCN(C)C(=O)CCC(CCC(=O)N(C)CCOCCOCCNS(=O)(=O)c3cccc([C@@H]4CN(C)Cc5c(Cl)cc(Cl)cc54)c3)(CCC(=O)N(C)CCOCCOCCNS(=O)(=O)c3cccc([C@@H]4CN(C)Cc5c(Cl)cc(Cl)cc54)c3)NC(=O)COCC(=O)O)c2)C1 [Example 70] | 35 to 75 | 2
– | – | – | 0.1 to 10 | 0.1 to 10 | < 0.1 | CC(=O)C(CCC(=O)NCCOCCOCCNS(=O)(=O)c1cccc([C@@H]2CN(C)Cc3c(Cl)cc(Cl)cc32)c1)(CCC(=O)NCCOCCOCCNS(=O)(=O)c1cccc([C@@H]2CN(C)Cc3c(Cl)cc(Cl)cc32)c1)CCC(=O)NCCOCCOCCNS(=O)(=O)c1cccc([C@@H]2CN(C)Cc3c(Cl)cc(Cl)cc32)c1 [Example 72, 4-acetyl-N1,N7-bis(2-(2-(2-(3-((S)-6,8-dichloro-2-methyl-1,2,3,4-tetrahydroisoquinolin-4-yl)phenylsulfonamido)ethoxy)ethoxy)ethyl)-4-(3-(2-(2-(2-(3-((S)-6,8-dichloro-2-methyl-1,2,3,4-tetrahydroisoquinolin-4-yl)phenylsulfonamido)ethoxy)ethoxy)ethylamino)-3-oxopropyl)heptanediamide] | 35 to 75 | –
